Test: Clinical study of bioavailability and pharmacokinetic properties, multiple oral dose crossover
Assay type: in vivo, healthy subjects
Details: Mean; analyte cannabidiol in plasma; 1,500 mg CBD oral twice daily over 7 days after a light meal; 144-168 h
Procedure: Bioavailability and pharmacokinetic properties of cannabidiol when administered orally in the form of the above described CBD granules containing 29.7% w/w cannabidiol was assessed in a clinical study.
The study involved a comparison with a reference product, an oily cannabidiol solution (DAC C-052 “Cannabidiol”/NRF 22.10 “Ölige Cannabidiol-Lösung 100 mg/ml” (“Oily cannabidiol solution 100 mg/ml”)) and was set up as an open-label, randomised (order of treatments), balanced, multiple dose trial was performed in a 2-period, 2-sequence-crossover design with direct switch-over.
Eighteen (18) healthy subjects of both sexes were randomised. The inclusion criteria involved a body-mass index (BMI)≥18.5 kg/m^2 and ≤30.0 kg/m^2.
The investigational medicinal products were administered after a light meal as single oral doses of 1500 mg cannabidiol (i.e., 5.051 g granules dispersed in water or 15 ml solution) twice daily (i.e., every 12 h) over 7 consecutive days.
Steady-state characterisation was performed over 2 dosing intervals. […]
Cannabidiol (CBD) and its metabolite 7-hydoxy cannabidiol (7-OH-CBD) in plasma samples were analysed by use of a validated LC-MS/MS; LLOQ for CBD was 5.00 ng/ml and for 7-OH-CBD was 1.000 ng/ml.

C=C(C)[C@@H]1CCC(C)=C[C@H]1c1c(O)cc(CCCCC)cc1O [cannabidiol, 2-[(1R,6R)-3-methyl-6-(1-methylethenyl)-2-cyclohexen-1-yl]-5-pentyl-1,3-benzenediol]
PTF %,144-168: about 250%
